Experimental data taken from US6339045B1, “N-(unsubstituted or substituted)-4-substituted-6-(unsubstituted or substituted)phenoxy-2-pyridinecarboxamides or thiocarboxamides, processes for producing the same, and herbicides” (Kureha Kagaku Kogyo Kabushiki Kaisha, priority 1995, dated 2002).

Tests used:
Test in all cases: Herbicidal effect by foliage and soil treatment
Assay type in all cases: in vivo
Conditions in all cases: 10 g ai/10a, evaluated after 14 days
[1] = test system: common blackjack (Bidens pilosa)
How it was run: (§1)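 Scores are ratings of growth versus untreated plants 14 days after treatment. Plants grown to cotyledonal–bifoliate stage in granular soil at 19 to 25° C received a foliage-and-soil spray of test solution containing Tween 20, applied at a set compound amount.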

[2] = test system: field bindweed (Convolvulus arvensis)
How it was run: as §1

[3] = test system: ivyleafspeedwell (Veronica hederaefolia)
How it was run: as §1

[4] = test system: kediock (Sinapis arvensis)
How it was run: as §1

[5] = test system: black nightshade (Solanum nigrum)
How it was run: as §1

[6] = test system: wild chamomile (Matricaria chamomilla)
How it was run: as §1

[7] = test system: cleavers (Galium aparine)
How it was run: as §1

[8] = test system: velvetleaf (Abutilon theophrasti)
How it was run: as §1

[9] = test system: redroot pigweed (Amaranthus retroflexus)
How it was run: as §1

[10] = test system: sicklepod (Cassia obtusifolia)
How it was run: as §1

[11] = test system: common chickweed (Stellaria media)
How it was run: as §1

| SMILES | herbicidal activity rating, BP (Bidens pilosa) [1] | herbicidal activity rating, CA (Convolvulus arvensis) [2] | herbicidal activity rating, VH (Veronica hederaefolia) [3] | herbicidal activity rating, SA (Sinapis arvensis) [4] | herbicidal activity rating, SN (Solanum nigrum) [5] | herbicidal activity rating, MC (Matricaria chamomilla) [6] | herbicidal activity rating, GA (Galium aparine) [7] | herbicidal activity rating, AT (Abutilon theophrasti) [8] | herbicidal activity rating, AR (Amaranthus retroflexus) [9] | herbicidal activity rating, CO (Cassia obtusifolia) [10] | herbicidal activity rating, SM (Stellaria media) [11] |
| --- | --- | --- | --- | --- | --- | --- | --- | --- | --- | --- | --- |
| COc1cc(Oc2cccc(C(F)(F)F)c2)nc(C(=O)NCCCS(C)(=O)=O)c1 [Compound I-77] | 4 (percentage of weeds killed was not less than 60% and less than 80%) | 4 (percentage of weeds killed was not less than 60% and less than 80%) | 5 (percentage of weeds killed was not less than 80%) | 5 (percentage of weeds killed was not less than 80%) | 5 (percentage of weeds killed was not less than 80%) | 3 (percentage of weeds killed was not less than 40% and less than 60%) | 5 (percentage of weeds killed was not less than 80%) | 5 (percentage of weeds killed was not less than 80%) | 5 (percentage of weeds killed was not less than 80%) | 5 (percentage of weeds killed was not less than 80%) | 4 (percentage of weeds killed was not less than 60% and less than 80%) |
| COc1cc(Oc2cccc(C(F)(F)F)c2)nc(C(=O)NCCCCl)c1 [Compound I-79] | 5 (percentage of weeds killed was not less than 80%) | 4 (percentage of weeds killed was not less than 60% and less than 80%) | 5 (percentage of weeds killed was not less than 80%) | 5 (percentage of weeds killed was not less than 80%) | 5 (percentage of weeds killed was not less than 80%) | 5 (percentage of weeds killed was not less than 80%) | 5 (percentage of weeds killed was not less than 80%) | 5 (percentage of weeds killed was not less than 80%) | 5 (percentage of weeds killed was not less than 80%) | 5 (percentage of weeds killed was not less than 80%) | 5 (percentage of weeds killed was not less than 80%) |
| COc1cc(Oc2cccc(C(F)(F)F)c2)nc(C(=O)NCC(F)(F)C(F)(F)C(F)(F)F)c1 [Compound I-80] | 5 (percentage of weeds killed was not less than 80%) | 5 (percentage of weeds killed was not less than 80%) | 5 (percentage of weeds killed was not less than 80%) | 5 (percentage of weeds killed was not less than 80%) | 5 (percentage of weeds killed was not less than 80%) | 5 (percentage of weeds killed was not less than 80%) | 5 (percentage of weeds killed was not less than 80%) | 5 (percentage of weeds killed was not less than 80%) | 5 (percentage of weeds killed was not less than 80%) | 5 (percentage of weeds killed was not less than 80%) | 5 (percentage of weeds killed was not less than 80%) |
| COc1cc(Oc2cccc(C(F)(F)F)c2)nc(C(=O)NCC(F)(F)C(F)(F)F)c1 [Compound I-81] | 5 (percentage of weeds killed was not less than 80%) | 5 (percentage of weeds killed was not less than 80%) | 5 (percentage of weeds killed was not less than 80%) | 5 (percentage of weeds killed was not less than 80%) | 5 (percentage of weeds killed was not less than 80%) | 5 (percentage of weeds killed was not less than 80%) | 5 (percentage of weeds killed was not less than 80%) | 5 (percentage of weeds killed was not less than 80%) | 5 (percentage of weeds killed was not less than 80%) | 5 (percentage of weeds killed was not less than 80%) | 5 (percentage of weeds killed was not less than 80%) |
| COc1cc(Oc2cccc(C(F)(F)F)c2)nc(C(=O)NCC(F)(F)F)c1 [Compound I-82] | 4 (percentage of weeds killed was not less than 60% and less than 80%) | 5 (percentage of weeds killed was not less than 80%) | 5 (percentage of weeds killed was not less than 80%) | 5 (percentage of weeds killed was not less than 80%) | 5 (percentage of weeds killed was not less than 80%) | 5 (percentage of weeds killed was not less than 80%) | 5 (percentage of weeds killed was not less than 80%) | 5 (percentage of weeds killed was not less than 80%) | 5 (percentage of weeds killed was not less than 80%) | 5 (percentage of weeds killed was not less than 80%) | 5 (percentage of weeds killed was not less than 80%) |
| COc1cc(Oc2cccc(C(F)(F)F)c2)nc(C(=O)NC=C(Cl)Cl)c1 [Compound I-83, N-(2,2-dichlorovinyl)-4-methoxy-6-{3-(trifluoromethyl)phenoxy}-2-pyridine carboxamide] | 5 (percentage of weeds killed was not less than 80%) | 5 (percentage of weeds killed was not less than 80%) | 5 (percentage of weeds killed was not less than 80%) | 5 (percentage of weeds killed was not less than 80%) | 5 (percentage of weeds killed was not less than 80%) | 5 (percentage of weeds killed was not less than 80%) | 5 (percentage of weeds killed was not less than 80%) | 5 (percentage of weeds killed was not less than 80%) | 5 (percentage of weeds killed was not less than 80%) | 5 (percentage of weeds killed was not less than 80%) | 5 (percentage of weeds killed was not less than 80%) |
